{
  "source": "patent EP3636781A1",
  "about": "“NOVEL SCREENING ASSAYS FOR IDENTIFYING COMPOUNDS RESERSING HIV-1 LATENCY” (Heinrich-Pette-Institut Leibniz-Institut für Experimentelle …, priority 2018, dated 2020)",
  "key": {"NF-κB (human)": {"target": "NF-κB (human) (UniProt Q04206)", "sequence (Q04206 whole entry)": "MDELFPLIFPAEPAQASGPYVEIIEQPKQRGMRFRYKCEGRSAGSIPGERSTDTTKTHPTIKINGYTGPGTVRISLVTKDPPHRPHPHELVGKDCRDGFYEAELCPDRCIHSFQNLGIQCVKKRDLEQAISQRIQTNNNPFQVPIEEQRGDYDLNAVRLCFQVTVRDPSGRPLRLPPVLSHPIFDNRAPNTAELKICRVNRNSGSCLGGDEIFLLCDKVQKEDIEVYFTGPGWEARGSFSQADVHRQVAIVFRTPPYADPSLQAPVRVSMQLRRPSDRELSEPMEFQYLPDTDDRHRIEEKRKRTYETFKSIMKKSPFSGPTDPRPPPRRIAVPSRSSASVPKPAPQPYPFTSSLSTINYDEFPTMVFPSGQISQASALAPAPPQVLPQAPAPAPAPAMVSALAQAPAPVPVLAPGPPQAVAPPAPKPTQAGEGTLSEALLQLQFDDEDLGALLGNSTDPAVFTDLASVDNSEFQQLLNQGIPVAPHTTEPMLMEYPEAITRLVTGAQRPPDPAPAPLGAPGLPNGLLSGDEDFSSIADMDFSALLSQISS", "assay": "cell-based or functional assay"}, "J89": {"system": "J89", "assay": "SM111 treatment of latent J89 cells, latency reversal as HIV-1-GFP+ cells", "type": "cell-based", "details": "100 µM, several consecutive passages, HIV-1-GFP+ cells by flow cytometry (Figure 7A)", "method": "All results were depicted as medians ± IQR. […].\nFor SM111 treatment, the HIV-1 latent Jurkat cell line, J89, was treated with SM111 compound, a Vpu-inhibitor, SM113, a negative compound, and DMSO for several consecutive passages. 1x10^6 cells were plated and treated with 100 µM of all compounds for 4 days. Then, one fourth (25%) of the cells were passaged into new media containing the respective treatment and the rest were used to measure HIV-1 latency reactivation (GFP) and cell viability. An untreated control well was kept as internal negative control."}, "J89Δvpu cells [1]": {"system": "J89Δvpu cells", "details": "96 hrs, proportion of Zombie NIR-/activated Caspase 3- cells against concentration", "procedure": "(§1) Latency reactivation was traced by quantifying the proportion of HIV-1-GFP+ cells. […] The treatment of J89Δvpu cells with increasing concentrations of sulfasalazine was measured at 96 hrs. Cells shown are gated on viable cells (Zombie NIR- gate) and on negative activated caspase 3 to exclude any apoptotic or dead cell. […] (B) NF-κB inhibitor, sulfasalazine, was added at several concentrations to the J89Cas9AVpu cell line and the proportion of GFP- cells (latent) was measured by flow cytometry at 96 hrs. (gating strategy: (A): FSC/SSC → Zombie NIR- → HIV-1-GFP. (B) FSC/SSC → Zombie NIR negative → Caspase 3 active negative → HIV-1-GFP)."}, "J89Δvpu cells [2]": {"system": "J89Δvpu cells", "assay": "cells", "details": "96 h, read-out: EC50 for HIV-1 latency re-establishment", "procedure": "as §1"}},
  "data": [
    {"compound": "HIV-1 89.6 Vpu R45K mutant", "values": [
      {"measurement": "activation of NF-κB in a dual luciferase reporter assay (HEK293T, constitutively active IKKβ, increasing amounts of Vpu expression plasmid), EC50", "setting": "NF-κB (human)", "value": "> 38", "unit": "ng"}
    ]},
    {"compound": "N=C(N)NC(=O)c1cccnc1N1CCCCCC1", "note": "[SM111, 1-(2-(azepan-1-yl)nicotinoyl)guanidine]", "values": [
      {"measurement": "reversal of HIV-1 latency", "setting": "J89", "value": "able to reverse HIV-1 latency"}
    ]},
    {"compound": "O=C(O)c1cc(/N=N/c2ccc(S(=O)(=O)Nc3ccccn3)cc2)ccc1O", "note": "[sulfasalazine]", "values": [
      {"measurement": "LD50", "setting": "J89Δvpu cells [1]", "value": "> 0.50", "unit": "mM"},
      {"measurement": "EC50", "setting": "J89Δvpu cells [2]", "value": 400, "unit": "µM"}
    ]},
    {"compound": "HIV-1 Vpu protein (strain 89.6), wild type", "values": [
      {"measurement": "activation of NF-κB in a dual luciferase reporter assay (HEK293T, constitutively active IKKβ, increasing amounts of Vpu expression plasmid), EC50", "setting": "NF-κB (human)", "value": 5.2, "unit": "ng"}
    ]}
  ]
}
